# According to patent US10195185B2, “3-(1H-imidazo[4,5-C]pyridin-2-yl)-1H-pyrazolo[4,3-B]pyridines and therapeutic uses thereof” (Samumed, LLC, priority 2015, dated 2019):
# How the values were obtained:
# [1] = system: Primary human fibroblasts derived from IPF patients (LL29 cells) treated with TGF-β1; test: Inhibition of the fibrotic process: αSMA staining in TGF-β1 treated fibroblasts; type: cell-based; settings: Fibroblast, 96 h, LL29 fibroblasts treated with TGF-β1, 4 days; for inhibition at 10 µM: read-out: percent inhibition in brackets beside EC50 >10 μM
# Method in brief: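 Compound dilutions from 10 μM down to […] are dispensed, LL29 cells added in F12 with 1% FBS, and TGF-β1 (20 ng/mL) follows after 1 h. After 4 days, live-cell αSMA positivity is measured by immunofluorescence and normalized to TGF-β1-treated wells to derive EC50.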
# [2] = system: primary human mesenchymal stem cells (hMSCs); test: Induction of chondrogenesis in hMSCs (nodule area, Rhodamine B / Nile Red); type: cell-based; settings: TGF-β3 as positive control; for Emax: read-out: Max. Activity as % TGF-β3 activity; for EC50: concentration required to induce 50% levels of chondrogenesis, read-out: Conc (nM) of 50% TGF-β3 activity
# Experimental: Representative compounds were screened using primary human mesenchymal stem cells (hMSCs) to determine their ability to induce chondrogenesis (process by which cartilage is developed).
# Primary human mesenchymal stem cells (hMSCs) were purchased from Lonza (Walkersville, Md.) and expanded in Mesenchymal Stem Cell Growth Media (Lonza). Cells between passage 3 and 6 were used for the experiments.
# Each compound was dissolved in DMSO as a 10 mM stock and used to prepare compound source plates. For the 96 well assay, serial dilution (1:3, 6-point dose-response curves from 2700 nM to 10 nM) and compound transfer was performed using the ECHO 550 (Labcyte, Sunnyvale, Calif.) into 96-well clear bottom assay plates (Greiner Bio-One) with appropriate DMSO backfill for a final DMSO concentration of 0.03%. hMSCs were plated at 20,000 cells/well in 250 μL/well Incomplete Chondrogenic Induction Medium (Lonza; DMEM, dexamethasone, ascorbate, insulin-transferrin-selenium [ITS supplement], gentamycin-amphotericin [GA-1000], sodium pyruvate, proline and L-glutamine). TGF-β3 (10 ng/mL) was used as a positive control for differentiation while negative control wells were treated with 75 nL DMSO for normalization and calculating EC50 values. For the 384 well assay, serial dilution (1:3, 8-point dose-response curves from 5000 nM to 2.2 nM) and compound transfer was performed using the ECHO 550 (Labcyte, Sunnyvale, Calif.) into 384-well clear bottom assay plates (Greiner Bio-One) with appropriate DMSO backfill for a final DMSO concentration of 0.03%. hMSCs were plated at 8,000 cells/well in 80 μL/well Incomplete Chondrogenic Induction Medium (Lonza; DMEM, dexamethasone, ascorbate, insulin-transferrin-selenium [ITS supplement], gentamycin-amphotericin [GA-1000], sodium pyruvate, proline and L-glutamine). TGF-β3 (10 ng/mL) was used as a positive control for differentiation while negative control wells were treated with 25 nL DMSO for normalization and calculating EC50 values. Cells were incubated at 37° C. and 5% CO2 for 6 days. To image chondrogenic nodules, the cells were fixed using 4% formaldehyde (Electron Microscopy Sciences), and stained with 2 μg/mL Rhodamine B (Sigma-Aldrich) and 20 μM Nile Red (Sigma-Aldrich) [Johnson K., et. al, A Stem Cell-Based Approach to Cartilage Repair, Science, (2012), 336(6082), 717-721]. The nodules imaged (25 images per well for 96 well plates and 9 images per well for 384 well plates at 10× magnification) by excitation at 531 nm and emission at 625 nm and quantified using the CellInsight CX5 (Thermo Scientific). Area of nodules in each well was normalized to the average of 3 DMSO treated wells on the same plate using Excel (Microsoft Inc.). The normalized averages (fold change over DMSO) of 2 or 3 replicate wells for each compound concentration were calculated. Due to solubility limitations of some of the compounds, curve fitting was incomplete leading to inaccurate EC50 determinations.
# Using TGF-β3 as a positive control, the concentration of representative compounds required to induce 50% levels of chondrogenesis is reported. In addition, the maximum activity of each compound and the respective dose that each compound reached maximum chondrogenesis activity is reported.
EC50 [2] [nM],Structure (SMILES),EC50 [1] [µM],inhibition at 10 µM [1] [%],Emax [2] [%]
30,"O=C(Cc1ccccc1)Nc1cncc(-c2ccc3[nH]nc(-c4nc5c(-c6ccncc6)nccc5[nH]4)c3n2)c1 [Compound 122, 2-phenyl-N-(5-(3-(4-(pyridin-4-yl)-1H-imidazo[4,5-c]pyridin-2-yl)-1H-pyrazolo[4,3-b]pyridin-5-yl)pyridin-3-yl)acetamide]",> 10,0,74
30,Cc1cn(-c2nccc3[nH]c(-c4n[nH]c5ccc(-c6cncc(NC(=O)CC(C)C)c6)nc45)nc23)cn1 [Compound 198],> 10,4.5,69
10,"CC(C)CC(=O)Nc1cncc(-c2ccc3[nH]nc(-c4nc5c(-c6ccc(Cl)s6)nccc5[nH]4)c3n2)c1 [Compound 1037, N-(5-(3-(4-(5-Chlorothiophen-2-yl)-1H-imidazo[4,5-c]pyridin-2-yl)-1H-pyrazolo [4,3-b]pyridin-5-yl)pyridin-3-yl)-3-methylbutanamide]",0.776,,104
,"CCNCc1cncc(-c2ccc3[nH]nc(-c4nc5c(-c6ccoc6)nccc5[nH]4)c3n2)c1 [Compound 314, N-((5-(3-(4-(Furan-3-yl)-1H-imidazo[4,5-c]pyridin-2-yl)-1H-pyrazolo[4,3-b]pyridin-5-yl)pyridin-3-yl)methyl)ethanamine]",> 10,20.6,33
10,"Nc1cncc(-c2ccc3[nH]nc(-c4nc5c(-c6ccccc6F)nccc5[nH]4)c3n2)c1 [Compound 59, 5-(3-(4-(2-Fluorophenyl)-1H-imidazo[4,5-c]pyridin-2-yl)-1H-pyrazolo[4,3-b]pyridin-5-yl)pyridin-3-amine]",> 10,0,108
30,"CC(C)Nc1cncc(-c2ccc3[nH]nc(-c4nc5c(-c6ccoc6)nccc5[nH]4)c3n2)c1 [Compound 320, 5-(3-(4-(Furan-3-yl)-1H-imidazo[4,5-c]pyridin-2-yl)-1H-pyrazolo[4,3-b]pyridin-5-yl)-N-isopropylpyridin-3-amine]",0.17,,76
,"Cc1ncc(-c2ccc3[nH]nc(-c4nc5c(-c6ccoc6)nccc5[nH]4)c3n2)n1C [Compound 685, 5-(1,2-Dimethyl-1H-imidazol-5-yl)-3-(4-(furan-3-yl)-1H-imidazo[4,5-c]pyridin-2-yl)-1H-pyrazolo[4,3-b]pyridine]",5.3,,
,"CN(C)CCNc1cc(F)cc(-c2nccc3[nH]c(-c4n[nH]c5ccc(-c6cncc(OCCN7CCCC7)c6)nc45)nc23)c1 [Compound 786, N^1-(3-Fluoro-5-(2-(5-(5-(2-(pyrrolidin-1-yl)ethoxy)pyridin-3-yl)-1H-pyrazolo[4,3-b]pyridin-3-yl)-1H-imidazo[4,5-c]pyridin-4-yl)-5phenyl)-N^2,N^2-dimethylethane-1,2-diamine]",> 10,0,
,"Oc1cncc(-c2ccc3[nH]nc(-c4nc5cnccc5[nH]4)c3n2)c1 [Compound 661, 5-(3-(1H-Imidazo[4,5-c]pyridin-2-yl)-1H-pyrazolo[4,3-b]pyridin-5-yl) pyridin-3-ol]",> 10,0,
,"CN1CCN(c2nccc3[nH]c(-c4n[nH]c5ccc(-c6cnccn6)nc45)nc23)CC1 [Compound 648, 3-(4-(4-Methylpiperazin-1-yl)-1H-imidazo[4,5-c]pyridin-2-yl)-5-(pyrazin-2-yl)-1H-pyrazolo[4,3-b]pyridine]",6.47,,
,"COc1cncc(-c2ccc3[nH]nc(-c4nc5c(-c6ccoc6)nccc5[nH]4)c3n2)c1 [Compound 692, 3-(4-(Furan-3-yl)-1H-imidazo[4,5-c]pyridin-2-yl)-5-(5-methoxypyridin-3-yl)-1H-pyrazolo[4,3-b]pyridine]",0.334,,
,"Cn1cc(-c2ccc3[nH]nc(-c4nc5c(-c6cccs6)nccc5[nH]4)c3n2)cn1 [Compound 700, 5-(1-Methyl-1H-pyrazol-4-yl)-3-(4-(thiophen-2-yl)-1H-imidazo[4,5-c]pyridin-2-yl)-1H-pyrazolo[4,3-b]pyridine]",0.224,,
,"CS(=O)(=O)NCc1cc(F)cc(-c2nccc3[nH]c(-c4n[nH]c5ccc(-c6cncc(NC(=O)CC7CCNCC7)c6)nc45)nc23)c1 [Compound 769, N-(5-(3-(4-(3-Fluoro-5-(methylsulfonamidomethyl)phenyl)-1H-imidazo[4,5-c]pyridin-2-yl)-1H-pyrazolo[4,3-b]pyridin-5-yl)pyridin-3-yl)-2-(piperidin-4-yl)acetamide]",5.05,,
,"c1cc2[nH]c(-c3n[nH]c4ccc(-c5cncc(OCCN6CCCC6)c5)nc34)nc2c(-c2ccoc2)n1 [Compound 690, 3-(4-(Furan-3-yl)-1H-imidazo[4,5-c]pyridin-2-yl)-5-(5-(2-(pyrrolidin-1-yl)ethoxy)pyridin-3-yl)-1H-pyrazolo[4,3-b]pyridine]",> 10,42.6,
,"c1cc(-c2ccc3[nH]nc(-c4nc5c(-c6ccncc6)nccc5[nH]4)c3n2)ccn1 [Compound 130, 5-(pyridin-4-yl)-3-(4-(pyridin-4-yl)-1H-imidazo[4,5-c]pyridin-2-yl)-1H-pyrazolo[4,3-b]pyridine]",> 10,15.3,
,"O=C(Nc1cncc(-c2ccc3[nH]nc(-c4nc5c(-c6ccccc6F)nccc5[nH]4)c3n2)c1)C1CCCC1 [Compound 78, N-(5-(3-(4-(2-Fluorophenyl)-1H-imidazo[4,5-c]pyridin-2-yl)-1H-pyrazolo [4,3-b]pyridin-5-yl)pyridin-3-yl)cyclopentanecarboxamide]",> 10,0,
,"Fc1ccccc1-c1nccc2[nH]c(-c3n[nH]c4ccc(-c5cncc(CNCC6CCCC6)c5)nc34)nc12 [Compound 81, 1-Cyclopentyl-N-((5-(3-(4-(2-fluorophenyl)-1H-imidazo[4,5-c]pyridin-2-yl)-1H-pyrazolo[4,3-b]pyridin-5-yl)pyridin-3-yl)methyl)methanamine]",1.28,,
,"O=C(Cc1ccccc1)Nc1cncc(-c2ccc3[nH]nc(-c4nc5cnccc5[nH]4)c3n2)c1 [Compound 262, N-(5-(3-(1H-imidazo[4,5-c]pyridin-2-yl)-1H-pyrazolo[4,3-b]pyridin-5-yl)pyridin-3-yl)-2-phenylacetamide]",> 10,0,
,"COc1cccc(-c2nccc3[nH]c(-c4n[nH]c5ccc(-c6cncc(NC(=O)CC(C)(C)C)c6)nc45)nc23)c1 [Compound 1006, N-(5-(3-(4-(3-methoxyphenyl)-1H-imidazo[4,5-c]pyridin-2-yl)-1H-pyrazolo [4,3-b]pyridin-5-yl)pyridin-3-yl)-3,3-dimethylbutanamide]",2.5,,
,"Cn1cc(-c2ccc3[nH]nc(-c4nc5c(N6CCCCC6)nccc5[nH]4)c3n2)c(CO)n1 [Compound 1133, (1-Methyl-4-(3-(4-(piperidin-1-yl)-1H-imidazo[4,5-c]pyridin-2-yl)-1H-pyrazolo [4,3-b]pyridin-5-yl)-1H-pyrazol-3-yl)methanol]",1.06,,
,"O=C(Nc1cncc(-c2ccc3[nH]nc(-c4nc5cnccc5[nH]4)c3n2)c1)C1CCCCC1 [Compound 275, N-(5-(3-(1H-Imidazo[4,5-c]pyridin-2-yl)-1H-pyrazolo[4,3-b]pyridin-5-yl)pyridin-3-yl)cyclohexanecarboxamide]",> 10,28.8,
,"c1cc2[nH]c(-c3n[nH]c4ccc(-c5cn[nH]c5)nc34)nc2cn1 [Compound 651, 3-(1H-Imidazo[4,5-c]pyridin-2-yl)-5-(1H-pyrazol-4-yl)-1H-pyrazolo[4,3-b]pyridine]",> 10,16.4,
